Measurements as given in patent US20110110923A1, “FISH ASSAY FOR EML4 AND ALK FUSION IN LUNG CANCER” (The Brigham and Women's Hospital, Inc., priority 2008, published 2011).
“Also recorded” adds a separate entry of the source.

Tests used:
[1] = in vivo; cited from earlier work
[2] = system: Karpas 299 cells; conditions: NPM-ALK positive lymphoma cells; cited from earlier work
[3] = system: EML4-ALK fusion transformed Ba/F3 models; conditions: original study describing the EML4-ALK fusion gene; cited from earlier work
[4] = target: ALK kinase (Homo sapiens, UniProt Q9UM73); conditions: initial studies, Li et al.; read-out: IC50 (ALK inhibitors); cited from earlier work
[5] = system: H2228 cell line (EML4-ALK variant 3); experiment: MTS cell growth assay, H2228; type: cell-based; conditions: Homo sapiens, NCI-H2228, read-out: IC50, growth inhibition, H2228, 72 hours
Procedure: (§1) Growth and inhibition of growth was assessed by methoxy-tetrazolium salt (MTS) assay. This assay, a colorimetric method for determining the number of viable cells, is based on the bioreduction of 3-(4,5-dimethylthiazol-2-yl)-5-(3-carboxymethoxyphenyl)-2-(4-sulfophenyl)-2H-tetrazolium (MTS) by cells to a formazan product that is soluble in cell culture medium, can be detected spectrophotometrically. NSCLC cells were exposed to treatment for 72 hours and the number of cells used per experiment determined empirically. All experimental points were set up in six to twelve wells and all experiments were repeated at least three times. […] The curves were fitted using a non-linear regression model with a sigmoidal dose response.

[6] = system: Akt, STAT3 and ERK 1/2 phosphorylation in DFCI032; experiment: Western blot of downstream signalling, DFCI032; type: cell-based, human; conditions: DFCI032, 0.1 μM, 6 hours
Procedure: (§2) The supernatant was used for subsequent procedures. […] Immunoblotting was performed according to the antibody manufacturers' recommendations. […] Total ERK1/2 and phospho-ERK1/2 (pT185/pY187) antibodies were purchased from Biosource International (Camarillo, Calif.).

[7] = system: A549 cell line (K-Ras G12S); experiment: MTS cell growth assay, A549; type: cell-based, human; conditions: A549, 72 hours
Procedure: as §1

[8] = system: other cell lines (H2228, DFCI032, PC-9, A549); experiment: Growth arrest / apoptosis in the other NSCLC cell lines; type: cell-based, human; conditions: other cell lines than H3122
Procedure: as §1, §2
Cells were collected and fixed in 40% ethanol for at least 1 hour (or until ready for the experiment) at 4° C. […] The stained cells were then analyzed for DNA content in a Becton Dickinson fluorescence-activated cell sorter using both ModFit (Verity Software House, Topsham, Me.) and CellQuest (Becton Dickinson, San Jose, Calif.) programs.

[9] = system: Akt, STAT3 and ERK 1/2 phosphorylation in H2228; experiment: Western blot of downstream signalling, H2228; type: cell-based, human; conditions: H2228, 0.1 μM, 6 hours
Procedure: as §2

[10] = system: DFCI032 cell line (EML4-ALK variant 1); experiment: MTS cell growth assay, DFCI032; type: cell-based; conditions: Homo sapiens, read-out: IC50, growth inhibition, DFCI032, 72 hours
Procedure: as §1

[11] = system: H3122 cell line; experiment: Apoptosis by FACS (sub G1) and Western blot for cleaved PARP, H3122; type: cell-based, human; conditions: H3122, 0.1 μM, 72 h
Procedure: as §2
Cells were collected and fixed in 40% ethanol for at least 1 hour (or until ready for the experiment) at 4° C. The fixed cells were treated with 0.5 mL of […] RNase A for 45 minutes at 37° C. and stained with […] propidium iodide (in 38 mM sodium citrate) for at least 30 minutes at room temperature in the dark. The stained cells were then analyzed for DNA content in a Becton Dickinson fluorescence-activated cell sorter using both ModFit (Verity Software House, Topsham, Me.) and CellQuest (Becton Dickinson, San Jose, Calif.) programs.

[12] = system: H3122 cell line (EML4-ALK variant 1); experiment: MTS cell growth assay, H3122; type: cell-based; conditions: Homo sapiens, NCI-H3122, read-out: IC50, growth inhibition, H3122, 72 hours
Procedure: as §1

[13] = system: Akt, STAT3 and ERK 1/2 phosphorylation in H3122; experiment: Western blot of downstream signalling, H3122; type: cell-based, human; conditions: H3122, 0.1 μM, 6 hours
Procedure: as §2

[14] = system: Akt, STAT3 and ERK 1/2 phosphorylation in PC-9; experiment: Western blot of downstream signalling, PC-9; type: cell-based, human; conditions: PC-9, 0.1 μM, 6 hours
Procedure: as §2

[15] = system: PC-9 cell line (EGFR delE746_A750); experiment: MTS cell growth assay, PC-9; type: cell-based, human; conditions: PC-9, 72 hours
Description: All experimental points were set up in six to twelve wells and all experiments were repeated at least three times. […] The curves were fitted using a non-linear regression model with a sigmoidal dose response.

ALK kinase, sequence (Q9UM73 19-1620): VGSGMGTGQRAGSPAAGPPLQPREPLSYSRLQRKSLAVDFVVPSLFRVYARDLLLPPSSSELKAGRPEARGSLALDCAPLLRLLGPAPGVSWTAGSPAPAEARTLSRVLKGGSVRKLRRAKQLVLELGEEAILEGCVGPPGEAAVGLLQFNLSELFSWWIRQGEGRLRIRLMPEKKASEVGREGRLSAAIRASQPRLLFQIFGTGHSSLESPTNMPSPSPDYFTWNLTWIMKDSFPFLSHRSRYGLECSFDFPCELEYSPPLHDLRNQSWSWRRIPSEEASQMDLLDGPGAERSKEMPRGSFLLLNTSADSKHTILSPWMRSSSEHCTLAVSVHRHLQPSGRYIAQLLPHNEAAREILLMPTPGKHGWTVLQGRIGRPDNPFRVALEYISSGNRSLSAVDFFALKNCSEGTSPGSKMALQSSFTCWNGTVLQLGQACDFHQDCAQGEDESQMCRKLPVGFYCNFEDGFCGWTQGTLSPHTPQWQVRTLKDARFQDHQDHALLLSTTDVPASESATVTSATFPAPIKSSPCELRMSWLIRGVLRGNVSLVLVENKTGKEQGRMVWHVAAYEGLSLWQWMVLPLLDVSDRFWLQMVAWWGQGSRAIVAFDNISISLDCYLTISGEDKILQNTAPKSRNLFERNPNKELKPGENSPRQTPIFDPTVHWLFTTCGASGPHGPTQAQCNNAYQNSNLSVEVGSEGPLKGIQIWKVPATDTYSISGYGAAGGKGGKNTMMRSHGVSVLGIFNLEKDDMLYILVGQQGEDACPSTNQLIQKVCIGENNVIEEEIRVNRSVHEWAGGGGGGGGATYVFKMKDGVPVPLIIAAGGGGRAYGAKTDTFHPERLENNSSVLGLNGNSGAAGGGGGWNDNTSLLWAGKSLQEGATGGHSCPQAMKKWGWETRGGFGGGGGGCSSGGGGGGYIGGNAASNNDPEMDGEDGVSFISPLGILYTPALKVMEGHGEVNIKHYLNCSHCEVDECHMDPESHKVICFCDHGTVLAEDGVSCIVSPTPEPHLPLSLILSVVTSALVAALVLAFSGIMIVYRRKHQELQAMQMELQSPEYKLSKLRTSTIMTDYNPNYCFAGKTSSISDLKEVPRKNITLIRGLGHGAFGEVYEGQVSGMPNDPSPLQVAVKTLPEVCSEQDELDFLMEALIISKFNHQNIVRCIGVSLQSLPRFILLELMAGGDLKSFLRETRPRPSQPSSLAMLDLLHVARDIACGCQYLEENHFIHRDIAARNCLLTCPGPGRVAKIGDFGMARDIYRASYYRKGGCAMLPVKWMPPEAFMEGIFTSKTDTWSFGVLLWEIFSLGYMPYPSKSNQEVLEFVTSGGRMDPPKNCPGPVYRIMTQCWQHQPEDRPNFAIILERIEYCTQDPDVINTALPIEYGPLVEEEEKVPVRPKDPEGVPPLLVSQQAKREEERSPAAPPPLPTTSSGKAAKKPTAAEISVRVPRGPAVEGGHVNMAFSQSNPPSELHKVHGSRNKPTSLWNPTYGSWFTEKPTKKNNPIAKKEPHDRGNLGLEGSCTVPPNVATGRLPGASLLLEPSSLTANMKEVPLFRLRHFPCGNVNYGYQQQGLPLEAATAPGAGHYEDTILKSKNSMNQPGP

Structure (SMILES)	bioavailability [1]	IC50 [2]	growth inhibition [3]	IC50 [4]	IC50 [5]	Akt, STAT3 and ERK 1/2 phosphorylation [6]	growth: resistance to the inhibitor [7]	growth arrest or apoptosis [8]	Akt, STAT3 and ERK 1/2 phosphorylation [9]	IC50 [10]	89 kDa cleaved PARP product (Western blot) [11]	apoptosis (FACS sub G1 fraction / cleaved PARP) [11]	apoptosis (FACS sub G1 fraction / cleaved PARP) ([11]; listed as TAE-684)	IC50 [12]	Akt, STAT3 and ERK 1/2 phosphorylation [13]	Akt, STAT3 and ERK 1/2 phosphorylation [14]	growth: resistance to the inhibitor [15]
C[C@@H](Oc1cc(-c2cnn(C3CCNCC3)c2)cnc1N)c1c(Cl)ccc(F)c1Cl [PF-02341066]	good	0.026 µM															
COc1cc2ncnc(Nc3ccc(O)c(Br)c3)c2cc1OC [WHI-P154]			growth inhibition	~5 µM													
COc1cc(N2CCC(N3CCN(C)CC3)CC2)ccc1Nc1ncc(Cl)c(Nc2ccccc2S(=O)(=O)C(C)C)n1 [NVP-TAE684]	good	0.002 to 0.005 µM			1 to 10 µM	unchanged; also recorded: no inhibition	resistant	No growth arrest or apoptosis	some but not complete inhibition; also recorded: only partial inhibition; also recorded: decrease	1 to 10 µM	observed	significant apoptosis	Significant apoptosis	~0.01 µM	substantial inhibition; also recorded: decrease	unchanged	resistant
